Assay: UV absorption in ethanol
Assay type: physicochemical
Details: for E1% / εmax: at λmax

| Structure (SMILES) | λmax | E1% | εmax | E1% (listed as Example 2) | εmax (listed as Example 2) |
| --- | --- | --- | --- | --- | --- |
| CC(C)COC(=O)C(=Cc1ccc(OC[Si](C)(C)C)cc1)C(=O)OCC(C)C [Example 4, diisobutyl 2-(4-trimethylsilanylmethoxy)benzylidenemalonate] | λmax = 316 nm, | E1% = 663. | εmax = 26 960, | – | – |
| CC(C)(C)COC(=O)C(=Cc1ccc(OC[Si](C)(C)C)cc1)C(=O)OCC(C)(C)C [Example 5, dineopentyl 2-(4-trimethylsilanylmethoxy)benzylidenemalonate] | λmax = 317 nm, | E1% = 592. | εmax = 25 730, | – | – |
| CCCCC(CC)COC(=O)C(=Cc1ccc(OC[Si](C)(C)C)c(OC)c1)C(=O)OCC(CC)CCCC (centres unmarked) [Example 7, bis(2-ethylhexyl) 2-[3-methoxy-4-(trimethylsilanylmethoxy)benzylidene]malonate] | λmax = 331 nm, | E1% = 331. | εmax = 18 170, | – | – |
| CC(C)OC(=O)/C=C/c1ccc(OC[Si](C)(C)C)cc1 [Example 11, isopropyl 2-(4-trimethylsilanylmethoxy)cinnamate] | λmax = 310 nm, | E1% = 711. | εmax = 20 800, | – | – |
| CCOC(=O)C(=Cc1ccc(OC[Si](C)(C)C)cc1)C(=O)OCC [Example 3, diethyl 2-(4-trimethylsilanylmethoxy)benzylidenemalonate] | λmax = 316 nm, | E1% = 750. | εmax = 26 290, | – | – |
| COc1ccc(C=C(C(=O)OC[Si](C)(C)C)C(=O)OC[Si](C)(C)C)cc1 [Example 13, di(methyltrimethylsilanyl) 2-(4-methoxybenzylidene)malonate] | λmax = 313 nm, | E1% = 653. | εmax = 25 770, | – | – |
| COC(=O)C(=Cc1ccc(OC[Si](C)(C)COc2ccc(C=C(C(=O)OC)C(=O)OC)cc2)cc1)C(=O)OC [Example 9, dimethyl 2-(4-{[({4-[3-methoxy-2-(methoxycarbonyl)-3-oxoprop-1-enyl]phenoxy}methyl)(dimethyl)silyl]methoxy}benzylidene)malonate] | λmax = 316 nm, | E1% = 903. | εmax = 50 270, | – | – |
| CC1(C)OC(=O)C(=Cc2ccc(OC[Si](C)(C)C)cc2)C(=O)O1 [Example 6, 2,2-dimethyl-5-[4-(trimethylsilanylmethoxy)benzylidene]-1,3-dioxane-4,6-dione] | λmax = 370 nm, | E1% = 756. | εmax = 25 230, | – | – |
| C[Si](C)(C)COc1ccc(C=C(C(N)=O)C(N)=O)cc1 [Example 10, 2-[4-(trimethylsilanylmethoxy)benzylidene]malonamide] | λmax = 310 nm, | E1% = 696. | εmax = 20 350, | – | – |
| COC(=O)C(=Cc1ccc(OC[Si](C)(C)C)cc1)C(=O)OC [Example 1, dimethyl 2-(4-trimethylsilanylmethoxy)benzylidenemalonate] | λmax = 317 nm, | E1% = 840. | εmax = 27 085, | E1% = 820. | εmax = 26 440, |

Source: patent US7354571B2, “Photoprotective compositions comprising methyltrialkylsilanes containing a cinnamate, cinnamamide, benzalmalonamide or benzalmalonate function” (L'Oreal, priority 2003, dated 2008)
